Assay in all cases: microbe, parasite or virus in culture
The subject of assay [1] is NS5A chimeric genotype 1b Con1 replicon with genotype 4a ED43 strain NS5A gene. The class given is cell-based, HCV.
In assay [2] the test system is stable HCV 1a RLuc replicon cells (genotype 1a H77 replicon). The class given is cell-based. To be noted: Hepatitis C virus.
Assay [3] relates to stable HCV 1b RLuc replicon cells (genotype 1b Con1 replicon). Format: cell-based.
Assay [4] concerns stable HCV 2a JFH-1 Rluc replicon cells (L31 present in NS5A). The class given is cell-based.
Assay [5] concerns NS5A chimeric genotype 2a JFH-1 replicon with genotype 2b MD2b-1 strain NS5A gene (M31 present). The class given is cell-based, HCV. The essentials: (§1)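 Genotype 3a (S52) and 4a (ED43) NS5A chimeras use 1b Con1 Pi-RLuc replicons, transfected transiently; 2b MD2b-1 NS5A chimera (M31) uses 2a JFH-1 RLuc-Neo replicon, transient or stable.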
Assay [6] deals with NS5A chimeric genotype 2a JFH-1 replicon with genotype 2a J6 strain NS5A gene (M31 present). Format: cell-based, HCV.
The test system of assay [7] is NS5A chimeric genotype 1b Con1 replicon with genotype 3a S52 strain NS5A gene. The class given is cell-based, HCV. The essentials:
as §1

The test system of assay [8] is 1a Pi-Rluc replicon with Q30R in genotype 1a NS5A. The class given is cell-based, HCV. The essentials:
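Q30R introduced by site-directed mutagenesis into genotype 1a Pi-RLuc replicon; RNA transiently transfected into Huh-7-derived cured-51 cells.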

Where [9] appears, read: Hepatitis C virus, read-out: 4a.
Where [10] appears, read: Hepatitis C virus, read-out: 4a (s) (nM).
Where [11] appears, read: Hepatitis C virus, read-out: 4a (t) (nM).
Where [12] appears, read: Hepatitis C virus, read-out: 1b (nM).
Where [13] appears, read: Hepatitis C virus, read-out: 2a JFH.
Where [14] appears, read: Hepatitis C virus, read-out: 2a JFH (nM).
Where [15] appears, read: Hepatitis C virus, read-out: 2b.
The mark [16] stands for this setting: Hepatitis C virus, read-out: 2b (s) (nM).
[17] abbreviates: Hepatitis C virus, read-out: 2a J6.
Where [18] appears, read: Hepatitis C virus, read-out: 2a J6 (s) (nM).
[19] abbreviates: Hepatitis C virus, read-out: 3a.
Where [20] appears, read: Hepatitis C virus, read-out: 3a (nM).
The mark [21] stands for this setting: Hepatitis C virus, read-out: 1a Q30R.
[22] abbreviates: Hepatitis C virus, read-out: 1a Q30R (nM).
[23] abbreviates: Hepatitis C virus, read-out: 2b (t) (nM).
[24] abbreviates: Hepatitis C virus, read-out: 2a Jb (t) (nM).

Read-outs that look alike come from different tables or passages of the source.

Consider `COC(=O)N[C@H](C(=O)N1CCC[C@H]1c1ncc(-c2ccc3c(c2)COc2cc4c(ccc5nc([C@@H]6CCCN6C(=O)[C@H](NC(=O)C6CC6)c6ccccc6)[nH]c54)cc2-3)[nH]1)C(C)C` [Compound 516], for which the EC50 is less than 1 nM in assay [1] (setting [9]); 0.025 nM in assay [1] (setting [10]); 0.01 nM in assay [1] (setting [11]); less than 1 nM in assay [2] (read-out: 1a); 0.015 nM in assay [2] (read-out: 1a (nM)); 0.024 nM in assay [3] (setting [12]). Also, the EC50 in assay [4] (setting [13]) was less than 1 nM; in assay [4] (setting [14]) it was 0.009 nM; in assay [5] (setting [15]), less than 1 nM; in assay [5] (setting [16]) it was 0.013 nM; in assay [6] (setting [17]), less than 1 nM; in assay [6] (setting [18]), 0.043 nM. Moreover, the EC50 in assay [7] (setting [19]) was less than 1 nM; in assay [7] (setting [20]), 0.005 nM.

`COC[C@H]1C[C@@H](c2nc3ccc4cc5c(cc4c3[nH]2)OCc2cc(-c3cnc([C@@H]4CCCN4C(=O)[C@@H](NC(=O)OC)C(C)C)[nH]3)ccc2-5)N(C(=O)[C@H](NC(=O)OC)c2ccccc2)C1` [Example LR-1, methyl{2-[2-{9-[2-(1-{2-[(methoxycarbonyl)amino]-3-methylbutanoyl}pyrrolidin-2-yl)-1H-imidazol-5-yl]-1,11-dihydroisochromeno[4′,3′:6,7]naphtho[1,2-d]imidazol-2-yl}-4-(methoxymethyl)pyrrolidin-1-yl]-2-oxo-1-phenylethyl}carbamate]: the EC50 in assay [1] (setting [9]) was less than 1 nM; in assay [1] (setting [10]), 0.012 nM; in assay [1] (setting [11]), 0.01 nM; in assay [8] (setting [21]) it was less than 1 nM; in assay [8] (setting [22]), 0.015 nM; in assay [2] (read-out: 1a), less than 1 nM. Moreover, the EC50 in assay [2] (read-out: 1a (nM)) was 0.011 nM; in assay [3] (setting [12]), 0.016 nM; in assay [4] (setting [13]) it was less than 1 nM; in assay [4] (setting [14]) it was 0.005 nM; in assay [5] (setting [15]), less than 1 nM; in assay [5] (setting [16]) it was 0.024 nM. For the same molecule, the EC50 was 0.01 nM in assay [5] (setting [23]); less than 1 nM in assay [6] (setting [17]); 0.048 nM in assay [6] (setting [18]); 0.018 nM in assay [6] (setting [24]); less than 1 nM in assay [7] (setting [19]); 0.013 nM in assay [7] (setting [20]).

`COC(=O)N[C@H](C(=O)N1[C@@H]2C[C@@H]2C[C@H]1c1ncc(-c2ccc3c(c2)COc2cc4c(ccc5nc([C@@H]6C[C@H](COC(F)F)CN6C(=O)[C@H](NC(=O)OC)c6ccccc6)[nH]c54)cc2-3)[nH]1)C(C)C` [Example MW]: the EC50 in assay [1] (setting [9]) was less than 1 nM; in assay [1] (setting [10]) it was 0.011 nM; in assay [2] (read-out: 1a), less than 1 nM; in assay [2] (read-out: 1a (nM)), 0.012 nM; in assay [3] (setting [12]) it was 0.026 nM; in assay [4] (setting [13]), less than 1 nM. Besides, the EC50 in assay [4] (setting [14]) was 0.012 nM; in assay [5] (setting [15]) it was less than 1 nM; in assay [5] (setting [16]), 0.123 nM; in assay [5] (setting [23]) it was 0.043 nM; in assay [6] (setting [17]) it was less than 1 nM; in assay [6] (setting [24]), 0.02 nM.

As for `COC[C@H]1C[C@@H](c2nc3ccc4cc5c(cc4c3[nH]2)OCc2cc(-c3cnc([C@@H]4CCCN4C(=O)[C@@H](NC(=O)OC)[C@@H](C)OC)[nH]3)ccc2-5)N(C(=O)[C@H](NC(=O)OC)c2ccccc2)C1` [Example OT, Methyl {(1R)-2-[(2S,4S)-2-(9-{2-[(2S)-1-{(2S,3R)-3-methoxy-2-[(methoxycarbonyl)amino]butanoyl}pyrrolidin-2-yl]-1H-imidazol-5-yl}-1,11-dihydroisochromeno[4′,3′:6,7]naphtho[1,2-d]imidazol-2-yl)-4-(methoxymethyl)pyrrolidin-1-yl]-2-oxo-1-phenylethyl}carbamate], the EC50 in assay [8] (setting [21]) is less than 1 nM; in assay [8] (setting [22]), 0.041 nM; in assay [2] (read-out: 1a), less than 1 nM; in assay [2] (read-out: 1a (nM)) it was 0.011 nM; in assay [3] (setting [12]), 0.02 nM; in assay [4] (setting [13]) it was less than 1 nM. Also, the EC50 was 0.005 nM in assay [4] (setting [14]); less than 1 nM in assay [5] (setting [15]); 0.012 nM in assay [5] (setting [23]); less than 1 nM in assay [6] (setting [17]); 0.013 nM in assay [6] (setting [24]); less than 1 nM in assay [7] (setting [19]). For the same molecule, in assay [7] (setting [20]), the EC50 was 0.024 nM.

For the molecule `COC[C@H]1C[C@@H](c2nc3ccc4cc5c(cc4c3[nH]2)OCc2cc(-c3cnc([C@@H]4C[C@H](C(F)(F)F)CN4C(=O)[C@@H](NC(=O)OC)C(C)C)[nH]3)ccc2-5)N(C(=O)[C@H](NC(=O)OC)c2ccccc2)C1` [Example PJ, methyl {(1R)-2-[(2S,4S)-2-(9-{2-[(2S,4S)-1-{(2S)-2-[(methoxycarbonyl)amino]-3-methylbutanoyl}-4-(trifluoromethyl)pyrrolidin-2-yl]-1H-imidazol-5-yl}-1,11-dihydroisochromeno[4′,3′:6,7]naphtho[1,2-d]imidazol-2-yl)-4-(methoxymethyl)pyrrolidin-1-yl]-2-oxo-1-phenylethyl}carbamate], the EC50 is 0.056 nM in assay [1] (Hepatitis C virus, read-out: 4a (s) (nM) EC50); less than 1 nM in assay [1] (Hepatitis C virus, read-out: 4a EC50 range); 0.068 nM in assay [2] (read-out: 1a (nM) EC50); less than 1 nM in assay [2] (read-out: 1a EC50 range); 0.088 nM in assay [3] (Hepatitis C virus, read-out: 1b (nM) EC50); 0.058 nM in assay [4] (Hepatitis C virus, read-out: 2a JFH (nM) EC50). For the same molecule, the EC50 was less than 1 nM in assay [4] (Hepatitis C virus, read-out: 2a JFH EC50 range); 0.854 nM in assay [5] (Hepatitis C virus, read-out: 2b (s) (nM) EC50); 0.335 nM in assay [5] (Hepatitis C virus, read-out: 2b (t) (nM) EC50); less than 1 nM in assay [5] (Hepatitis C virus, read-out: 2b EC50 range); less than 1 nM in assay [6] (Hepatitis C virus, read-out: 2a J6 EC50 range); 0.136 nM in assay [6] (Hepatitis C virus, read-out: 2a Jb (t) (nM) EC50).

For `COC(=O)N[C@H](C(=O)N1C[C@@H](COC(F)F)C[C@H]1c1nc2ccc3cc4c(cc3c2[nH]1)OCc1cc(-c2cnc(C3CCCN3C(=O)OC(C)(C)C)[nH]2)ccc1-4)C(C)C` (stereo partly drawn) [Example PQ, tert-butyl 2-[5-(2-{(2S,4S)-4-[(difluoromethoxy)methyl]-1-[N-(methoxycarbonyl)-L-valyl]pyrrolidin-2-yl}-1,11-dihydroisochromeno[4′,3′:6,7]naphtho[1,2-d]imidazol-9-yl)-1H-imidazol-2-yl]pyrrolidine-1-carboxylate], the EC50 in assay [1] (setting [9]) is less than 1 nM; in assay [1] (setting [10]) it was 0.017 nM; in assay [1] (setting [11]), 0.015 nM; in assay [8] (setting [21]), less than 1 nM; in assay [8] (setting [22]) it was 0.106 nM; in assay [2] (read-out: 1a) it was less than 1 nM. In addition, the EC50 was 0.014 nM in assay [2] (read-out: 1a (nM)); 0.014 nM in assay [3] (setting [12]); less than 1 nM in assay [4] (setting [13]); 0.005 nM in assay [4] (setting [14]); less than 1 nM in assay [5] (setting [15]); 0.057 nM in assay [5] (setting [16]). Further, the EC50 in assay [5] (setting [23]) is 0.032 nM; in assay [6] (setting [17]), less than 1 nM; in assay [6] (setting [18]), 0.155 nM; in assay [6] (setting [24]), 0.025 nM.

Regarding “dimethyl (2S,2′S)-1,1′-((2S,2′S)-2,2′1-pyrrolidin-2-yl)-5H-naphtho[c,g]chromeno[8,9-d]imidazol-9-yl)-1H-imidazol-2-yl)pyrrolidin-1-yl))bis(3-methyl-1-oxobutane-2,1-diyl)dicarbamate [Example MC]”, the EC50 in assay [1] (genotype 4a, EC50 range, transiently transfected cells (t), else stably replicating cells (s), read-out: 4a) is less than 1 nM; in assay [1] (stably replicating cells (s), read-out: 4a (s)) it was 0.028 nM; in assay [1] (transiently transfected cells (t), read-out: 4a (t)) it was 0.008 nM; in assay [8] (1a Q30R resistance mutant, EC50 range, read-out: 1a Q30R), less than 1 nM; in assay [8] (1a Q30R resistance mutant, read-out: 1a Q30R), 0.99 nM; in assay [3] (read-out: 1b) it was 0.017 nM. Also, the EC50 is less than 1 nM in assay [4] (genotype 2a JFH, EC50 range, read-out: 2a JFH); 0.004 nM in assay [4] (genotype 2a JFH, read-out: 2a JFH); less than 1 nM in assay [5] (genotype 2b, EC50 range, transiently transfected cells (t), else stably replicating cells (s), read-out: 2b); 0.375 nM in assay [5] (stably replicating cells (s), read-out: 2b (s)); 0.162 nM in assay [5] (transiently transfected cells (t), read-out: 2b (t)); 1 to 4.99 nM in assay [6] (genotype 2a J6, EC50 range, transiently transfected cells (t), else stably replicating cells (s), read-out: 2a J6). For the same molecule, the EC50 is 3.52 nM in assay [6] (stably replicating cells (s), read-out: 2a J6 (s)); 1.16 nM in assay [6] (transiently transfected cells (t), read-out: 2a Jb (t)); less than 1 nM in assay [7] (genotype 3a, EC50 range, read-out: 3a); 0.004 nM in assay [7] (genotype 3a, read-out: 3a).

These data come from patent publication US8575135B2 (Gilead Sciences, Inc., priority 2011, dated 2013).
